# Patent publication US10869844B2, “Methods for the treatment of depression” (Janssen Pharmaceutica NV, priority 2014, dated 2020)
# Where two headings read alike, the source gives them in different places.
# Tested on: adult subjects with treatment resistant depression
# Type: in vivo, human
# Settings: for Non-remitters % / Non-remitters No. / Remitters No. (MADRS total score 10) / Remitters % (MADRS total score 10): ketamine pooled 2x/week and 3x/week; for Duration of response, survival function estimate: Failure / Duration of response, survival function estimate: Survival: ketamine responders (Day 29), follow-up phase; for Response rates, Val/Val vs Met carriers: ketamine subjects
# Excerpt: This was a double-blind, randomized, placebo-controlled, parallel arm study to assess the safety and efficacy of ketamine dosed 2 or 3 times weekly in adult subjects with treatment resistant depression. The study consisted of up to 4 phases: a screening phase of up to 4 weeks, a 4-week double-blind treatment phase (Day 1 to Day 29), an optional 2-week open label treatment phase, and a post treatment (follow up) phase of up to 3 weeks.
# On Day 1 of the double-blind treatment phase, subjects were randomized to receive either i.v. infusions of placebo 2 times weekly or i.v. infusions of placebo 3 times weekly or i.v. infusions of ketamine 0.50 mg/kg, 2 times weekly or i.v. infusions of ketamine 0.50 mg/kg, 3 times weekly over 4 weeks.
# Subjects who discontinued the double-blind treatment phase of the study due to lack of efficacy (based upon the clinical judgment of the investigator) after completion of the Day 15 visit, but prior to the Day 29 visit, may have received open-label ketamine treatment with the same dose frequency for an additional 2 weeks. After completing the Early Termination visit, the subject had study assessments as per the Time and Events Schedule for the optional open-label treatment phase followed by one follow up visit performed 1 week after the last dose of study medication.
# [1] = Met carriers, DAY 03 or DAY 04, ketamine pooled 2x/wk and 3x/wk
# [2] = Met carriers, DAY 08(DB), ketamine pooled 2x/wk and 3x/wk
# [3] = Met carriers, DAY 15(DB), ketamine pooled 2x/wk and 3x/wk
# [4] = Met carriers, DAY 29(DB), ketamine pooled 2x/wk and 3x/wk
# [5] = Met carriers, Day 0 after Day 29
# [6] = Met carriers, Day 10 after Day 29
# [7] = Met carriers, Day 11 after Day 29
# [8] = Val/Val, DAY 03 or DAY 04, ketamine pooled 2x/wk and 3x/wk
# [9] = Val/Val, DAY 08(DB), ketamine pooled 2x/wk and 3x/wk
# [10] = Val/Val, DAY 15(DB), ketamine pooled 2x/wk and 3x/wk
# [11] = Val/Val, DAY 29(DB), ketamine pooled 2x/wk and 3x/wk
smiles,measurement,setting,value
"CNC1(c2ccccc2Cl)CCCCC1=O (racemic) [Ketamine, ketamine]","Subjects who remain well, number","Met carrier group, at Day 39, from 7",4
same,"Day 29 responders who maintain response status during the follow-up phase, %",Met carriers (of 8),62.5%
same,"Day 29 responders who maintain response status during the follow-up phase, number",Met carriers (of 8),5
same,Non-remitters %,"Met carriers, DAY 03 or DAY 04",100.0%
same,Non-remitters No.,"Met carriers, DAY 03 or DAY 04",13
same,Remitters No. (MADRS total score 10),"Met carriers, DAY 03 or DAY 04",0
same,"MADRS total score change from baseline, Mean",[1],−6.85
same,"MADRS total score, Mean",[1],25.92
same,Non-responders %,[1],92.3%
same,Non-responders N,[1],12
same,Responders % (MADRS total score reduction ≥50%),[1],7.7%
same,Responders N (MADRS total score reduction ≥50%),[1],1
same,Non-remitters %,"Met carriers, DAY 08(DB)",72.7%
same,Non-remitters No.,"Met carriers, DAY 08(DB)",8
same,Remitters % (MADRS total score 10),"Met carriers, DAY 08(DB)",27.3%
same,Remitters No. (MADRS total score 10),"Met carriers, DAY 08(DB)",3
same,"MADRS total score change from baseline, Mean",[2],−15.64
same,"MADRS total score, Mean",[2],17.00
same,Non-responders %,[2],54.5%
same,Non-responders N,[2],6
same,Responders % (MADRS total score reduction ≥50%),[2],45.5%
same,Responders N (MADRS total score reduction ≥50%),[2],5
same,Non-remitters %,"Met carriers, DAY 15(DB)",54.5%
same,Non-remitters No.,"Met carriers, DAY 15(DB)",6
same,Remitters % (MADRS total score 10),"Met carriers, DAY 15(DB)",45.5%
same,Remitters No. (MADRS total score 10),"Met carriers, DAY 15(DB)",5
same,"MADRS total score change from baseline, Mean",[3],−17.45
same,"MADRS total score, Mean",[3],15.18
same,Non-responders %,[3],45.5%
same,Non-responders N,[3],5
same,Responders % (MADRS total score reduction ≥50%),[3],54.5%
same,Responders N (MADRS total score reduction ≥50%),[3],6
same,Non-remitters %,"Met carriers, DAY 29(DB)",33.3%
same,Non-remitters No.,"Met carriers, DAY 29(DB)",3
same,Remitters % (MADRS total score 10),"Met carriers, DAY 29(DB)",66.7%
same,Remitters No. (MADRS total score 10),"Met carriers, DAY 29(DB)",6
same,"MADRS total score change from baseline, Mean",[4],−22.00
same,"MADRS total score, Mean",[4],10.78
same,Non-responders %,[4],11.1%
same,Non-responders N,[4],1
same,Responders % (MADRS total score reduction ≥50%),[4],88.9%
same,Responders N (MADRS total score reduction ≥50%),[4],8
same,"Duration of response, survival function estimate: Failure",[5],0
same,"Duration of response, survival function estimate: Survival",[5],1.0000
same,"Duration of response, survival function estimate: Failure",[6],0.2857
same,"Duration of response, survival function estimate: Survival",[6],0.7143
same,"Duration of response, survival function estimate: Failure",[7],0.4286
same,"Duration of response, survival function estimate: Survival",[7],0.5714
same,"Day 29 responders who maintain response status during the follow-up phase, %",Val/Val (of 14),64.3%
same,"Day 29 responders who maintain response status during the follow-up phase, number",Val/Val (of 14),9
same,"Ketamine responders on Day 29, number",Val/Val and Met carriers together,22
same,Non-remitters %,"Val/Val, DAY 03 or DAY 04",95.2%
same,Non-remitters No.,"Val/Val, DAY 03 or DAY 04",20
same,Remitters % (MADRS total score 10),"Val/Val, DAY 03 or DAY 04",4.8%
same,Remitters No. (MADRS total score 10),"Val/Val, DAY 03 or DAY 04",1
same,"MADRS total score change from baseline, Mean",[8],−12.67
same,"MADRS total score, Mean",[8],22.29
same,Non-responders %,[8],71.4%
same,Non-responders N,[8],15
same,Responders % (MADRS total score reduction ≥50%),[8],28.6%
same,Responders N (MADRS total score reduction ≥50%),[8],6
same,Non-remitters %,"Val/Val, DAY 08(DB)",80.0%
same,Non-remitters No.,"Val/Val, DAY 08(DB)",16
same,Remitters % (MADRS total score 10),"Val/Val, DAY 08(DB)",20.0%
same,Remitters No. (MADRS total score 10),"Val/Val, DAY 08(DB)",4
same,"MADRS total score change from baseline, Mean",[9],−16.65
same,"MADRS total score, Mean",[9],18.50
same,Non-responders %,[9],60.0%
same,Non-responders N,[9],12
same,Responders % (MADRS total score reduction ≥50%),[9],40.0%
same,Responders N (MADRS total score reduction ≥50%),[9],8
same,Non-remitters %,"Val/Val, DAY 15(DB)",77.8%
same,Non-remitters No.,"Val/Val, DAY 15(DB)",14
same,Remitters % (MADRS total score 10),"Val/Val, DAY 15(DB)",22.2%
same,Remitters No. (MADRS total score 10),"Val/Val, DAY 15(DB)",4
same,"MADRS total score change from baseline, Mean",[10],−18.50
same,"MADRS total score, Mean",[10],16.11
same,Non-responders %,[10],33.3%
same,Non-responders N,[10],6
same,Responders % (MADRS total score reduction ≥50%),[10],66.7%
same,Responders N (MADRS total score reduction ≥50%),[10],12
same,Non-remitters %,"Val/Val, DAY 29(DB)",35.3%
same,Non-remitters No.,"Val/Val, DAY 29(DB)",6
same,Remitters % (MADRS total score 10),"Val/Val, DAY 29(DB)",64.7%
same,Remitters No. (MADRS total score 10),"Val/Val, DAY 29(DB)",11
same,"MADRS total score change from baseline, Mean",[11],−26.59
same,"MADRS total score, Mean",[11],9.59
same,Non-responders %,[11],17.6%
same,Non-responders N,[11],3
same,Responders % (MADRS total score reduction ≥50%),[11],82.4%
same,Responders N (MADRS total score reduction ≥50%),[11],14
same,"Duration of response, survival function estimate: Failure","Val/Val, Day 0 after Day 29",0
same,"Duration of response, survival function estimate: Survival","Val/Val, Day 0 after Day 29",1.0000
same,"Duration of response, survival function estimate: Failure","Val/Val, Day 4 after Day 29",0.1429
same,"Duration of response, survival function estimate: Survival","Val/Val, Day 4 after Day 29",0.8571
same,"Duration of response, survival function estimate: Failure","Val/Val, Day 16 after Day 29",0.2208
same,"Duration of response, survival function estimate: Survival","Val/Val, Day 16 after Day 29",0.7792
same,"Duration of response, survival function estimate: Failure","Val/Val, Day 18 after Day 29",0.3321
same,"Duration of response, survival function estimate: Survival","Val/Val, Day 18 after Day 29",0.6679
same,"Duration of response, survival function estimate: Failure","Val/Val, Day 38 after Day 29",1.0000
same,"Duration of response, survival function estimate: Survival","Val/Val, Day 38 after Day 29",0
same,"Subjects who remain well, number","Val/Val, by Day 44, of 14",12
same,"Reduction in MADRS total score, Val/Val vs Met carriers","ketamine pooled 2x/wk and 3x/wk, over time",Larger reductions in MADRS total score over most time points were observed in Val/Val carriers as compared to those Met carriers
same,"Response rates, Val/Val vs Met carriers",Day 3 or Day 4 and Day 15,response rates were higher on Day 3 or Day 4 and Day 15 in Val/Val subjects than in Met carriers
same,"Response rates, Val/Val vs Met carriers",Days 8 and 29,response rates were similar on Days 8 and 29
